From patent US20100291622A1, “NOVEL COMPOUND, PROCESS FOR PRODUCTION THEREOF, AND USE THEREOF” (SCHOOL JURIDICAL PERSON KITASATO INSTITUTE, priority 2007, published 2010)
Converted amounts (≈) assume the structure as drawn. Like-named read-outs stand apart in the source and are kept apart here.

Columns and labels:
MRSA K24 = experiment: MIC by agar dilution; type: cell-based; details: Staphylococcus aureus, 18 h
Experimental: (§1) The measurement of the minimal inhibitory concentration (MIC) for various microbes of the FKI-3368-I substance of the present invention was performed by the following method. An ethanol solution of the FKI-3368-I substance was subjected to 2-fold dilution from the concentration of 1,000 μg/ml to prepare 14 stage diluted solutions (1,000 μg/ml, 500 μg/ml, 250 μg/ml, 125 μg/ml, 62.5 μg/ml, 31.3 μg/ml, 15.6 μg/ml, 7.8 μg/ml, 3.9 μg/ml, 2 μg/ml, 1 μg/ml, 0.5 μg/ml, 0.24 μg/ml and 0.12 μg/ml). After 1 ml each of the respective diluted solutions was placed on a round shape dish (90 mm (diameter)×20 mm, produced by IWAKI Co., Ltd.), 9 ml of a culture medium-N for sensitivity disc (for bacteria; produced by Nissui Pharmaceutical Co., Ltd.) or Sabouraud glucose agar (for yeast or mold; produced by Nihon Pharmaceutical Co., Ltd.) was added thereto to form plate media. The test microbes had been incubated in advance in Muller Hinton culture media (for bacteria; produced by Nissui Pharmaceutical Co., Ltd.) or potato dextrose agar media (for yeast or mold; produced by Nissui Pharmaceutical Co., Ltd.). On the very date when the test was performed, the resultant microbe suspensions were diluted with an Muller Hinton culture medium or a potato dextrose culture medium and a platinum loop thereof was streak-smeared on the plate media. These streak-smeared plate media was incubated at 37° C. for 18 hours (for bacteria) or at 27° C. for 40 hours (for yeast and mold) and MIC was determined.

[1] = system: Penicillium chrysogenam IAM 12842; experiment: MIC by agar dilution; type: cell-based; details: IAM12842, 40 h
Experimental: as §1

[2] = system: Micrococcus luteus ATCC 9341; experiment: MIC by agar dilution; type: cell-based; details: ATCC9341; Micrococcus luteus ATCC 9341, 37° C. for 18 hours
Experimental: as §1

[3] = system: Bacillus subtilis ATCC 6633; experiment: MIC by agar dilution; type: cell-based; details: ATCC6633; Bacillus subtilis ATCC 6633, 37° C. for 18 hours
Experimental: as §1

[4] = system: Pseudomonas aeruginosa IFO 3080; experiment: MIC by agar dilution; type: cell-based; details: IFO3080; Pseudomonas aeruginosa IFO 3080, 37° C. for 18 hours
Experimental: as §1

[5] = system: Serratia marcescens IAM 1021; experiment: MIC by agar dilution; type: cell-based; details: IAM1021; Serratia marcescens IAM 1021, 37° C. for 18 hours
Experimental: as §1

[6] = system: Staphylococcus aureus ATCC 6538P; experiment: MIC by agar dilution; type: cell-based; details: ATCC6538P, 37° C. for 18 hours
Experimental: as §1

[7] = system: Candida albicans ATCC 64550; experiment: MIC by agar dilution; type: cell-based; details: ATCC64550, 40 h
Experimental: as §1

Escherichia coli NIHJ = experiment: MIC by agar dilution; type: cell-based; details: 37° C. for 18 hours
Experimental: as §1

[8] = system: Klebsiella pneumoniae ATCC 10031; experiment: MIC by agar dilution; type: cell-based; details: ATCC10031; Klebsiella pneumoniae ATCC 10031, 37° C. for 18 hours
Experimental: as §1

[9] = system: Saccharomyces cerevisiae ATCC 9763; experiment: MIC by agar dilution; type: cell-based; details: ATCC9763; Saccharomyces cerevisiae ATCC 9763, 27° C. for 40 hours
Experimental: as §1

[10] = system: Aspergillus niger ATCC 9642; experiment: MIC by agar dilution; type: cell-based; details: ATCC9642; Aspergillus niger ATCC 9642, 27° C. for 40 hours
Experimental: as §1

[11] = system: Mycobaderium smegmatis ATCC 607; experiment: MIC by agar dilution; type: cell-based; details: 18 h
Experimental: as §1

Mucor racemosus IFO 4581 = experiment: MIC by agar dilution; type: cell-based; details: IFO4581; Mucor racemosus IFO 4581, 27° C. for 40 hours
Experimental: as §1

[12] = biological target: T1, undecaprenyl diphosphate synthase derived from Staphylococcus aureus (Staphylococcus aureus, UniProt P60477); experiment: Inhibitory effect on undecaprenyl diphosphate synthase (phosphate release, Amplex Red fluorescence); type: biochemical
T1 construct: made in house; host or cells: E. coli BL21 (DE3), T7 promoter, IPTG induction; unpurified cell-free extract (100,000 x g supernatant)
Experimental: (1) Inhibitory effect on the undecaprenyl diphosphate synthase derived from Staphylococcus aureus
The test on the activity of undecaprenyl diphosphate synthase was determined following a method of LI et al. (J. Biomol. Screen., vol. 8, pages 712-715, 2003) with partial changes. […]
The measurement of the activity of undecaprenyl diphosphate synthase was conducted as follows: the FKI-3368 substance was added to a buffer solution B (100 mM Tris-HCl buffer solution (pH 7.5), 50 mM potassium chloride, 0.5 mM magnesium chloride, 0.5 μM farnesyl diphosphate, 3.5 μM isopentenyl diphosphate, […] inorganic pyrophosphatase) so that 90 μL in total volume might be respectively put in each well of a 96-well microplate. […] In order to quantify the released phosphate, 100 μL of a solution C (0.5M Tris-HCl buffer solution (pH 8.8), 1.5 mM inosine, 50 μM Amplex™ Red, 0.02 U nucleoside phosphorylase, 1 U peroxidase, 0.4 U xanthine oxidase) was added to each well and after reaction was performed at room temperature for 40 minutes, fluorescence intensity was measured under the conditions of an excitation wavelength at 544 nm and a measurement wavelength at 590 nm.
The addition amount of […] and the intensity of fluorescence (F.I.) measured in a reaction liquid without the addition thereof were applied to the following expression and the inhibition % was calculated: […]

Solubility in solvents = type: physicochemical
[13] = methanol, ethanol, acetonitrile, ethyl acetate, chloroform and dimethylsulfoxide

T1 sequence (P60477 whole entry): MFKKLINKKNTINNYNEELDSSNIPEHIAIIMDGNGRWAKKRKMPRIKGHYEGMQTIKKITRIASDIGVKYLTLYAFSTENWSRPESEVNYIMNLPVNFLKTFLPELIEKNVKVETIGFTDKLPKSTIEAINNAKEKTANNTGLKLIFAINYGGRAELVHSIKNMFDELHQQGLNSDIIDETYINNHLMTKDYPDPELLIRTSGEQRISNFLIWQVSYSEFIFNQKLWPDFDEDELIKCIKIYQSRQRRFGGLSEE

| SMILES | MIC (MRSA K24) | MIC [1] | MIC [2] | MIC [3] | MIC [4] | MIC [5] | MIC [6] | MIC [7] | MIC (Escherichia coli NIHJ) | MIC [8] | MIC [9] | MIC [10] | MIC [11] | MIC (Mucor racemosus IFO 4581) | IC50 ([12]; cell-free extract of transformed E. Coli as enzyme source, 37° C., 20 minutes, read-out: concentration at which the undecaprenyl diphosphate synthase activity was inhibited to 50% (IC50)) | Solubility in solvents (Solubility in solvents; [13]) | Solubility in solvents (Solubility in solvents; water) | IC50 [12] |
| --- | --- | --- | --- | --- | --- | --- | --- | --- | --- | --- | --- | --- | --- | --- | --- | --- | --- | --- |
| COc1cc(O)c2c(O)c3c(c4c2c1C1(C4)C(C)=CCCC1(C)C)C(O)C1(O)CC(O)=C(C(N)=O)C(=O)C1(O)C3=O (centres unmarked) [FKI-3368-1] | 0.78 µg/mL (≈ 1.38 µM) | 6.25 µg/mL (≈ 11.1 µM) | 1.56 µg/mL (≈ 2.76 µM) | 0.4 µg/mL (≈ 0.707 µM) | > 100 µg/mL | > 100 µg/mL | 0.78 µg/mL (≈ 1.38 µM) | 6.25 µg/mL (≈ 11.1 µM) | > 100 µg/mL | > 100 µg/mL | 12.5 µg/mL (≈ 22.1 µM) | 12.5 µg/mL (≈ 22.1 µM) | > 100 µg/mL | 25 µg/mL (≈ 44.2 µM) | 4 µM | Soluble | indissoluble | – |
| COc1cc(O)c2c(O)c3c(c4c2c1C1(C4)C(C)=CCCC1(C)C)C(O)C1(O)CC(O)=C(C(C)=O)C(=O)C1(O)C3=O (centres unmarked) [FKI-3368-2] | – | – | – | – | – | – | – | – | – | – | – | – | – | – | – | Soluble | indissoluble | 10 µM |
